Laboratory results from article PMC8383802 (ACS chemical neuroscience, 2020).

Columns and labels:
[1] = system: heroin self-administration; details: cited from earlier work
cocaine reward = details: cited from earlier work
[2] = system: Meth self-administered rats; details: cited from earlier work
[3] = system: morphine-induced hyper-locomotor activity; details: cited from earlier work
[4] = system: alcohol self-administration; details: cited from earlier work
alcohol intake = details: cited from earlier work; for alcohol intake: mice, without altering total fluid intake, alcohol-induced sedation or alcohol metabolism
[5] = system: methamphetamine (Meth)-induced hyper-locomotor activity; details: cited from earlier work
PDE4B = PDE4B (Homo sapiens, UniProt Q07343); experiment: IC50 determination on PDE4 isoforms in vitro; format: binding; details: read-out: IC50 on PDE4B
Sequence of PDE4B (Q07343 whole entry, canonical isoform): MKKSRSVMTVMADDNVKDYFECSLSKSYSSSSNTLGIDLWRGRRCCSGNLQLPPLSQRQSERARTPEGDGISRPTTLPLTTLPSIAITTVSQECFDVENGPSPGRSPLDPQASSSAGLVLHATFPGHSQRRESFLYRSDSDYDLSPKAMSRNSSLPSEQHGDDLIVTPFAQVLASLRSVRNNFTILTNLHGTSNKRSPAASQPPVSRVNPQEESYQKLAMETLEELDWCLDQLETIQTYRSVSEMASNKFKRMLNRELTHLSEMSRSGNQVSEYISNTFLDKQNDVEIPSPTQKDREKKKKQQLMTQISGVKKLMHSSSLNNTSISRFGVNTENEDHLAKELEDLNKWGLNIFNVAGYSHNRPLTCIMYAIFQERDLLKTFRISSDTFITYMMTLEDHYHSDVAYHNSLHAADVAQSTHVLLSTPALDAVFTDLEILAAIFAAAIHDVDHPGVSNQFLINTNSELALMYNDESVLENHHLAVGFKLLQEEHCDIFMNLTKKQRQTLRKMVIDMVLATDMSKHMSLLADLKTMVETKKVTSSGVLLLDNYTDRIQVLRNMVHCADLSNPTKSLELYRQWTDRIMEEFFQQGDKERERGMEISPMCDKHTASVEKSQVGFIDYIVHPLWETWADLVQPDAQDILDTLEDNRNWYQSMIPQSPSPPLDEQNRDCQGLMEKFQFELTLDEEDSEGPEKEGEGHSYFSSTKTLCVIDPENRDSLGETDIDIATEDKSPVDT

[6] = Pharmacokinetic study of KVA-D-88 in mice; format: in vivo
WT C57/BL6 mice = format: in vivo
[7] = system: cocaine self-administered mice; experiment: Cocaine self-administration in mice
PDE4D = PDE4D (Homo sapiens, UniProt Q08499); experiment: IC50 determination on PDE4 isoforms in vitro; format: binding; details: read-out: IC50 on PDE4D
Sequence of PDE4D (Q08499 whole entry, canonical isoform): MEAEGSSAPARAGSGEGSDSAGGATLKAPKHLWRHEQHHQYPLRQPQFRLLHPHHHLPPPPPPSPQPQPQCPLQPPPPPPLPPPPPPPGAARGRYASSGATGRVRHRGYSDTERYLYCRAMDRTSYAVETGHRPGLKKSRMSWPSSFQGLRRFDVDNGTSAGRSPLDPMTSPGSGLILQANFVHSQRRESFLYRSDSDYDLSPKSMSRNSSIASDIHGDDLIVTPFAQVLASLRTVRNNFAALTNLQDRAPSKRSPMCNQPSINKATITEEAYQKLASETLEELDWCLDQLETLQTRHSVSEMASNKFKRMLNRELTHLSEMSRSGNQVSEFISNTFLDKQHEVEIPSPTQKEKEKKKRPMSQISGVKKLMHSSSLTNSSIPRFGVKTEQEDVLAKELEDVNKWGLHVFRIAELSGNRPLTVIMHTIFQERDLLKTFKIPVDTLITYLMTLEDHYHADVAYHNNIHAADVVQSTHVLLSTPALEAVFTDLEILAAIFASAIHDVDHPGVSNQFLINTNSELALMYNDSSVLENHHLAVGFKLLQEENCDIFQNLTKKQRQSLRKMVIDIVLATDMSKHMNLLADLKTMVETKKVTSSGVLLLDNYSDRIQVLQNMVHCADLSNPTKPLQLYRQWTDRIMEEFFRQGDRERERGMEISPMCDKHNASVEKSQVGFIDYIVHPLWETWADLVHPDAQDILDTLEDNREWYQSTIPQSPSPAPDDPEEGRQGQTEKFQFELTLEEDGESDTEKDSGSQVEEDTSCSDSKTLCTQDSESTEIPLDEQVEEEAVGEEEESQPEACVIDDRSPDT

[8] = Brain and blood concentration of KVA-D-88 in mice; format: in vivo
[9] = FR1 schedule, 2 h, 5 and 2.5 mg/kg i.p. 30 min before, P < 0.05
[10] = FR3 schedule, 2 h session, 5 mg/kg, P < 0.05

For `COc1ccc(C2CNC(=O)C2)cc1OC1CCCC1` (stereo not shown) [rolipram], the heroin self-administration ([1]; fixed ratio 1 (FR1)) is given as “did not significantly inhibit”, the “rewarding effects of heroin” value ([1]; progressive ratio (PR) paradigm) is given as “decreased the rewarding effects” and the “cocaine-induced locomotor sensitization and conditional place preference” value (cocaine reward; mice) is given as “attenuated”. The “cocaine reward, incentive saliency and seeking behavior” value (cocaine reward; open field test, CPP and self-administration) was “reduce cocaine reward, incentive saliency and seeking behavior”, the “Meth-mediated seeking and consumption behaviors” value [2] was “effective in attenuating” and the “morphine-induced hyper-locomotor activity and CPP” value [3] was “reduced”. For the same compound, the “2-bottle choice alcohol consumption and preference” value [4] was “decreased”, the alcohol self-administration [4] was “dose-dependently reduced” and the alcohol intake (alcohol intake) was “reduced alcohol intake”.
For `CC(N)C(=O)c1c(C(C)C)nn2ccccc12` (stereo not shown) [AV1013], the “Meth-induced hyper-locomotor activity and sensitization” value [5] is listed as “reduced”.
For `O=C(c1cc2cccnc2n1-c1ccc(Cl)c(Cl)c1)N1CC(F)(F)C1` [KVA-D-88], the IC50 (PDE4B) was 140 nM, the “half-life (t1/2)” value ([6]; i.v. injection 1 mg/kg) was 6.1 h and the “mean residence time (MRT)” value ([6]; i.v. injection 1 mg/kg) was 5.7 h. For the same compound, the “AUC from time zero to infinity (AUC∞)” value ([6]; i.v. injection 1 mg/kg, plasma) was 1387.9 ng/mL, the “AUC from time zero to the last measurable concentration (AUClast)” value ([6]; i.v. injection 1 mg/kg, plasma) was 1382.9 ng/mL and the “maximum plasma concentration (Cmax)” value ([6]; i.v. injection 1 mg/kg, plasma) was 898.2 ng/mL. The “AUC∞” value ([6]; oral gavage 10 mg/kg) was 10825.9 ng/mL, the “Cmax in the blood” value ([6]; oral gavage 10 mg/kg) was 2150.5 ng/mL and the “half-life (t1/2)” value ([6]; oral gavage 10 mg/kg) was 7.16 h. The “mean residence time (MRT)” value ([6]; oral gavage 10 mg/kg) was 9 h, the “time to reach maximum concentration in the blood (Tmax)” value ([6]; oral gavage 10 mg/kg) was 15 min and the half-life ([6]; through either i.v. injection or p.o. approach) was 6 to 7 h. For the same compound, the “effect on cocaine-mediated hyper-locomotion” value (WT C57/BL6 mice; female mice, both testing doses (5 or 10 mg/kg i.p.), P < 0.05) was “significantly blocked cocaine-mediated hyper-locomotion”, the “effect on locomotor activity at basal levels” value (WT C57/BL6 mice; mice, KVA-D-88 without cocaine) was “minimal effects” and the “effect on cocaine-mediated locomotor sensitization” value (WT C57/BL6 mice; mice, daily pre-administration before cocaine for 7 consecutive days) was “strikingly blocked cocaine-mediated locomotor sensitization”. The “rate of cocaine self-administration” value ([7]; FR1 schedule, 5.0 mg/kg, P < 0.05) was “strikingly reduced”, the “number of active nose-pokes” value [7, 9] was “significantly decreased” and the “number of cocaine infusions” value [7, 9] was “significantly decreased”. For the same compound, the “numbers of active nose-poke” value [7, 10] was “significantly decreased”, the “numbers of cocaine infusions” value [7, 10] was “significantly decreased” and the break point ([7]; PR schedule, 3 h session, 5 mg/kg, P < 0.05) was “significantly decreased the numbers of break point”. For the same compound, the “fold stronger than apremilast on cocaine inhibition” value ([7]; cocaine self-intake, comparison of effective doses) was roughly 10 fold, the “effect on cocaine self-intake (active nose poke), dose-response” value (shortened to “effect on cocaine self-intake”) ([7]; dose 0.5 mg/kg) was “no inhibitory effect” and the “effect on cocaine self-intake” value ([7]; dose 1.0 mg/kg) was “no inhibitory effect”. For the same compound, the “effect on cocaine self-intake” value ([7]; dose 2 mg/kg) was “showed the inhibitory effects but did not reached the significance”, the “effect on cocaine self-intake” value ([7]; dose 4 mg/kg, P < 0.05) was “significant effects” and the IC50 (PDE4D) was 880 nM. For the same compound, the “average concentration in the blood” value ([8]; i.p. 10 mg/kg, 30 min later) was 3899.2 ng/mL, the “concentration ratio of brain: blood (Kp)” value ([8]; i.p. 10 mg/kg, 30 min later) was “approximately 0.6” and the “average concentration in the brain” value ([8]; i.p. 10 mg/kg, 30 min later, whole brain homogenates) was 2347.7 ng/g. For the same compound, the “concentration ratio (brain vs. plasma)” value ([8]; i.v. dosing as printed in the discussion) was 0.6 and the “concentration ratio (brain vs. plasma)” value ([8]; p.o. dosing (10 mg/kg)) was 1.2.
For `CCOc1cc([C@@H](CS(C)(=O)=O)N2C(=O)c3cccc(NC(C)=O)c3C2=O)ccc1OC` [apremilast, reference compound], the “effect on numbers of cocaine self-intake” value ([7]; dose 5 mg/kg) is given as “did not decrease”, the “effect on numbers of cocaine self-intake” value ([7]; dose 20 mg/kg) is given as “significant its inhibitory effects” and the “reward-related behavior induced by alcohol” value (alcohol intake) is given as “decreasing the reward-related behavior induced by alcohol”.
For `CCCCOc1cc(CC2CNC(=O)N2)ccc1OC` (stereo not shown) [Ro 20-1724], the alcohol intake (alcohol intake) is listed as “reduced alcohol intake”.
In the case of `CC(C)C(=O)c1c(C(C)C)nn2ccccc12` [ibudilast], the “drug seeking and intake behaviors” value ([2]; Meth self-administered rats) is given as “decreased drug seeking and intake behaviors”, the “Meth-mediated seeking and consumption behaviors” value [2] is given as “effective in attenuating” and the “Meth-induced hyper-locomotor activity and sensitization” value [5] is given as “reduced”.
